System: asymmetric di-methyl PABP1 in RKO cells
Assay: RKO methylation assay, In Cell Western (ICW) for asymmetric di-methyl PABP1
Type: cell-based
Settings: Homo sapiens, RKO, Cellular potencies, ICW PABP1me2a
Outline: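 In-cell Western on fixed RKO cells after 48 h compound exposure: anti-asymmetric di-methyl PABP1 signal at 800 nm over DRAQ5 DNA signal at 700 nm. Percent inhibition set between DMSO wells and wells with 20 μM reference compound; IC50 curves fitted in triplicate.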

Row | SMILES | IC50
1 | CCOC(=O)N1CC[C@@H](Nc2nc(-c3cc(OC[C@H](O)CNC)ccc3Cl)nc(-c3c(C)noc3C)c2Cl)C1 [Example 129-3] | < 5 µM
2 | CNCC(O)COc1cccc(-c2nc(-c3c(C)noc3C)cc(N3CCNC(C(F)(F)F)C3)n2)c1 (stereo not shown) [Example 131-1a] | < 5 µM
3 | CNCC(O)COc1cccc(-c2nc(-c3c(C)noc3C)cc(N3CCN(CC(F)(F)F)CC3)n2)c1 (stereo not shown) [Example 132-1a] | < 5 µM
4 | CNCC(O)COc1cccc(-c2nc(-c3c(C)noc3C)cc(N3CCN(C(=O)C4CC4)CC3)n2)c1 (stereo not shown) [Example 133-1a] | < 5 µM
5 | CNCC(O)COc1cccc(-c2nc(-c3c(C)noc3C)c(C)c(N3CCN(C(=O)OCCOC)CC3)n2)c1 (stereo not shown) [Example 134-1a] | < 5 µM
6 | CNC[C@@H](O)COc1ccc(Cl)c(-c2nc(NC[C@H]3COCCN3C(=O)OC(C)C)c(C)c(-c3c(C)noc3C)n2)c1 [Example 134-3] | < 5 µM
7 | CNCC(O)COc1cccc(-c2nc(N[C@H]3CC[C@H](O)C3)c(C)c(-c3c(C)noc3C)n2)c1 (stereo partly shown) [Example 135-1a] | < 5 µM
8 | CNCC(O)COc1cc(NC)cc(-c2nc(NC3CCOCC3)c(C)c(-c3c(C)noc3C)n2)c1 (stereo not shown) [Example 136-1a] | < 5 µM
9 | CCOC(=O)N1CCC[C@@H]1CCNc1nc(-c2cc(OC[C@H](O)CNC)ccc2Cl)nc(-c2c(C)noc2C)c1C [Example 136-3] | < 5 µM
10 | CNCC(O)COc1cccc(-c2nc(-c3c(C)noc3C)cc(N3CCN(CCOC)CC3)n2)c1 (stereo not shown) [Example 139-1a] | < 5 µM
11 | CNCC(O)COc1cccc(-c2nc(NCC3(N(C)C)CCOCC3)c(C)c(-c3c(C)noc3C)n2)c1 (stereo not shown) [Example 140-1a] | < 5 µM
12 | CCC1(CNc2nc(-c3cccc(OCC(O)CNC)c3)nc(-c3c(C)noc3C)c2C)CCOCC1 (stereo not shown) [Example 141-1a] | < 5 µM
13 | CNCC(O)COc1cccc(-c2nc(NCC3CCOCC3)c(Cl)c(-c3c(C)noc3C)n2)c1 (stereo not shown) [Example 142-1a] | < 5 µM
14 | CNCC(O)COc1cccc(-c2nc(NCC3CCOCC3)c(F)c(-c3c(C)noc3C)n2)c1 (stereo not shown) [Example 143-1a] | < 5 µM
15 | CNCC(O)COc1cccc(-c2nc(-c3c(C)noc3C)cc(N3CCN(CC(F)(F)F)[C@H](C)C3)n2)c1 (stereo partly shown) [Example 144-1a] | < 5 µM
16 | CNCC(O)COc1cccc(-c2nc(-c3c(C)noc3C)cc(N3CCN(CCF)[C@H](C)C3)n2)c1 (stereo partly shown) [Example 145-1a] | 5 to 10 µM
17 | CNCC(O)COc1cccc(-c2nc(NC3CCOCC3)c(C)c(-c3c(C)noc3CO)n2)c1 (stereo not shown) [Example 145-3] | 10 to 20 µM
18 | CNCC(O)COc1cccc(-c2nc(-c3c(C)noc3C)cc(N3CCN(C(=O)N(C)C)[C@H](C)C3)n2)c1 (stereo partly shown) [Example 146-1a] | < 5 µM
19 | CNCC(O)COc1cccc(-c2nc(-c3c(C)noc3C)cc(N3CCN(S(C)(=O)=O)[C@H](C)C3)n2)c1 (stereo partly shown) [Example 147-1a] | < 5 µM
20 | CNCC(O)COc1cccc(-c2nc(-c3c(C)noc3C)c(C)c(N3CCO[C@@H](CN(C)C)C3)n2)c1 (stereo partly shown) [Example 148-1a] | < 5 µM

Row | SMILES | IC50
21 | CNC[C@@H](O)COc1ccc(Cl)c(-c2nc(N[C@H]3CO[C@@H](C)C3)c(Cl)c(-c3c(C)noc3C)n2)c1 [Example 148-3] | < 5 µM
22 | CNCC(O)COc1cccc(-c2nc(-c3c(C)noc3C)c(C)c(N3CCO[C@@H](CN(C)C(=O)OC)C3)n2)c1 (stereo partly shown) [Example 149-1a] | < 5 µM
23 | CNC[C@@H](O)COc1ccc(Cl)c(-c2nc(N[C@H]3CCO[C@@H](C)C3)c(Cl)c(-c3c(C)noc3C)n2)c1 [Example 149-3] | < 5 µM
24 | CNCC(O)COc1cccc(-c2nc(-c3c(C)noc3C)c(C)c(N3CCO[C@@H](CN(C)S(C)(=O)=O)C3)n2)c1 (stereo partly shown) [Example 150-1a] | 5 to 10 µM
25 | CNCC(O)COc1cccc(-c2nc(-c3c(C)noc3C)c(C)c(N3CCO[C@H](CN(C)C)C3)n2)c1 (stereo partly shown) [Example 151-1a] | < 5 µM
26 | CCOC(=O)N1CC[C@H](Nc2nc(-c3cc(OC[C@H](O)CNC)ccc3Cl)nc(-c3c(C)noc3C)c2Cl)C1 [Example 151-3] | < 5 µM
27 | CC[C@@H]1CN(c2nc(-c3cccc(OCC(O)CNC)c3)nc(-c3c(C)noc3C)c2C)CCN1S(=O)(=O)CC (stereo partly shown) [Example 152-1a] | < 5 µM
28 | CC[C@@H]1CN(c2nc(-c3cccc(OCC(O)CNC)c3)nc(-c3c(C)noc3C)c2C)CCN1S(C)(=O)=O (stereo partly shown) [Example 153-1a] | < 5 µM
29 | CCOC(=O)N1CCCC[C@@H]1CNc1nc(-c2cc(OC[C@H](O)CNC)ccc2Cl)nc(-c2c(C)noc2C)c1Cl [Example 153-3] | < 5 µM
30 | CC[C@H]1CN(c2nc(-c3cccc(OCC(O)CNC)c3)nc(-c3c(C)noc3C)c2C)CCN1S(=O)(=O)CC (stereo partly shown) [Example 154-1a] | < 5 µM
31 | CC[C@H]1CN(c2nc(-c3cccc(OCC(O)CNC)c3)nc(-c3c(C)noc3C)c2C)CCN1S(C)(=O)=O (stereo partly shown) [Example 155-1a] | < 5 µM
32 | CNC[C@@H](O)COc1ccc(Cl)c(-c2nc(N[C@@H]3CCO[C@H](C)C3)c(Cl)c(-c3c(C)noc3C)n2)c1 [Example 155-3] | < 5 µM
33 | CNC[C@@H](O)COc1cccc(-c2nc(-c3c(C)noc3C)c(C)c(-c3cn(S(C)(=O)=O)c4ncncc34)n2)c1 [Example 156-1a] | 5 to 10 µM
34 | CNCC(O)COc1cccc(-c2nc(NC(C)C3CCOCC3)c(C)c(-c3c(C)noc3C)n2)c1 (stereo not shown) [Example 157-1a] | < 5 µM
35 | CNCC(O)COc1cccc(-c2nc(NC3(C)CCOCC3)c(F)c(-c3c(C)noc3C)n2)c1 (stereo not shown) [Example 159-1a] | 10 to 20 µM
36 | CNCC(O)COc1cccc(-c2nc(C(=O)NC3CCN(C)CC3)cc(-c3c(C)noc3C)n2)c1 (stereo not shown) [Example 160-1a] | 10 to 20 µM
37 | CNCC(O)COc1cccc(-c2nc(-c3c(C)noc3C)c(C)c(N3CCN(C(=O)OCC(F)F)CC3)n2)c1 (stereo not shown) [Example 161-1a] | < 5 µM
38 | CCOC(=O)N1CCOC[C@@H]1COc1nc(-c2cc(OC[C@H](O)CNC)ccc2Cl)nc(-c2c(C)noc2C)c1C [Example 161-3] | < 5 µM
39 | CNCC(O)COc1cccc(-c2nc(-c3c(C)noc3C)c(C)c(N3CC[C@H](C(=O)N(C)C)C3)n2)c1 (stereo partly shown) [Example 162-1a] | < 5 µM

The remaining lines, values ahead:

Row | IC50 | SMILES
40 | < 5 µM | CNC[C@@H](O)COc1ccc(Cl)c(-c2nc(N[C@H]3CCO[C@@H](C)C3)c(C)c(-c3c(C)noc3C)n2)c1 [Example 128-3]
41 | < 5 µM | CNC[C@@H](O)COc1ccc(Cl)c(-c2nc(NC[C@H]3CCCO3)c(C)c(-c3c(C)noc3C)n2)c1 [Example 130-3]
42 | < 5 µM | CNC[C@@H](O)COc1ccc(Cl)c(-c2nc(NC[C@@H]3CCCO3)c(C)c(-c3c(C)noc3C)n2)c1 [Example 131-3]
43 | < 5 µM | CNC[C@@H](O)COc1ccc(Cl)c(-c2nc(N[C@@H]3CCO[C@H](C)C3)c(C)c(-c3c(C)noc3C)n2)c1 [Example 132-3]
44 | < 5 µM | CCOC(=O)N1CCC[C@@H]1COc1nc(-c2cc(OC[C@H](O)CNC)ccc2Cl)nc(-c2c(C)noc2C)c1C [Example 133-3]
45 | < 5 µM | CNC[C@@H](O)COc1ccc(Cl)c(-c2nc(N[C@@H]3CCN(C(=O)OC)[C@H](C)C3)c(C)c(-c3c(C)noc3C)n2)c1 [Example 135-3]
46 | < 5 µM | CNCC(O)COc1ccc(Cl)c(-c2nc(NC3(C)CCOCC3)c(Cl)c(-c3c(C)noc3C)n2)c1 (stereo not shown) [Example 137-1a]
47 | < 5 µM | CCOC(=O)N1CCC[C@H]1CCNc1nc(-c2cc(OC[C@H](O)CNC)ccc2Cl)nc(-c2c(C)noc2C)c1C [Example 137-3]
48 | < 5 µM | CNC[C@@H](O)COc1ccc(Cl)c(-c2nc(-c3c(C)noc3C)c(C)c(N3CCC4(CCN(C5CC5)C4)C3)n2)c1 (stereo partly shown) [Example 138-3]
49 | < 5 µM | CNC[C@@H](O)COc1ccc(Cl)c(-c2nc(N[C@@H]3CCN(C4CC4)[C@H](C)C3)c(C)c(-c3c(C)noc3C)n2)c1 [Example 139-3]
50 | < 5 µM | CNC[C@@H](O)COc1ccc(Cl)c(-c2nc(-c3c(C)noc3C)c(C)c(N3Cc4cnn(C)c4C3)n2)c1 [Example 140-3]
51 | < 5 µM | CNC[C@@H](O)COc1ccc(Cl)c(-c2nc(-c3c(C)noc3C)c(C)c(N3CCc4nc(C)sc4C3)n2)c1 [Example 141-3]
52 | < 5 µM | CNC[C@@H](O)COc1ccc(Cl)c(-c2nc(-c3c(C)noc3C)c(C)c(N3Cc4nccnc4C3)n2)c1 [Example 142-3]
53 | < 5 µM | CNC[C@@H](O)COc1ccc(Cl)c(-c2nc(N[C@H]3C[C@H](OC)C3)c(C)c(-c3c(C)noc3C)n2)c1 [Example 143-3]
54 | < 5 µM | CNC[C@@H](O)COc1ccc(Cl)c(-c2nc(N[C@H]3C[C@@H](OC)C3)c(C)c(-c3c(C)noc3C)n2)c1 [Example 144-3]
55 | < 5 µM | CNC[C@@H](O)COc1ccc(Cl)c(-c2nc(NC3CC4(C3)CN(C(=O)OC)C4)c(C)c(-c3c(C)noc3C)n2)c1 [Example 146-3]
56 | < 5 µM | CNC[C@@H](O)COc1ccc(Cl)c(-c2nc(N[C@H]3CCN(C)C[C@H]3F)c(C)c(-c3c(C)noc3C)n2)c1 [Example 147-3]
57 | < 5 µM | CCOC(=O)N1CC[C@H](Nc2nc(-c3cc(OC[C@H](O)CNC)ccc3Cl)nc(-c3c(C)noc3C)c2C)C1 [Example 150-3]
58 | < 5 µM | CNC[C@@H](O)COc1ccc(Cl)c(-c2nc(N[C@H]3CO[C@@H](C)C3)c(C)c(-c3c(C)noc3C)n2)c1 [Example 152-3]
59 | < 5 µM | CCOC(=O)N1CCCC[C@@H]1CNc1nc(-c2cc(OC[C@H](O)CNC)ccc2Cl)nc(-c2c(C)noc2C)c1C [Example 154-3]
60 | < 5 µM | CNC[C@@H](O)COc1ccc(Cl)c(-c2nc(-c3c(C)noc3C)c(C)c(N3Cc4cc(Cl)cnc4C3)n2)c1 [Example 156-3]
61 | < 5 µM | CNC[C@@H](O)COc1ccc(Cl)c(-c2nc(-c3c(C)noc3C)c(C)c(N3Cc4cc(F)cnc4C3)n2)c1 [Example 157-3]
62 | < 5 µM | CNC[C@@H](O)COc1ccc(Cl)c(-c2nc(-c3c(C)noc3C)c(C)c(N3CCC4(CC3)CN(C3CC3)C4)n2)c1 [Example 158-3]
63 | < 5 µM | CNC[C@@H](O)COc1ccc(Cl)c(-c2nc(-c3c(C)noc3C)c(C)c(N3Cc4ccncc4C3)n2)c1 [Example 159-3]
64 | < 5 µM | CNC[C@@H](O)COc1ccc(Cl)c(-c2nc(NC[C@H]3CCCN3C(=O)OC(C)C)c(C)c(-c3c(C)noc3C)n2)c1 [Example 160-3]

From patent US10633389B2, “CARM1 inhibitors and uses thereof” (Epizyme, Inc., priority 2013, dated 2020)
